Laboratory results from ChEMBL document CHEMBL1151154, “Potential inhibitors of platelet aggregation from plant sources, V. Anthraquinones from seeds of Cassia obtusifolia and related compounds” (1990).

Experiments:
Type in all cases: functional
[1] = Antiplatelet activity in rat platelet rich plasma assessed as drug level causing inhibition of collagen-stimulated platelet aggregation pretreated 2 mins before collagen challenge
[2] = Antiplatelet activity in rat platelet rich plasma assessed as drug level causing inhibition of arachidonic acid-stimulated platelet aggregation pretreated 2 mins before arachidonic acid challenge
[3] = Antiplatelet activity in rat platelet rich plasma assessed as drug level causing inhibition of ADP-stimulated platelet aggregation pretreated 2 mins before ADP challenge

SMILES | Activity [1] [mg/mL] | Activity [2] [mg/mL] | Activity [3] [mg/mL]
O=C1c2cccc(O)c2C(=O)c2c(O)cc(CO)cc21 [ALOE-EMODIN] | 0.25 | 0.25 | >0.25
Cc1cc(O)c2c(c1)C(=O)c1cc(O)cc(O)c1C2=O [EMODIN] | >0.25 | >0.25 | >0.25
COc1cc2c(c(OC)c1OC)C(=O)c1c(cc(C)c(O)c1OC)C2=O [CHRYSOOBTUSIN] | 0.25 | 0.25 | 0.25
COc1c(O[C@@H]2O[C@H](CO)[C@@H](O)[C@H](O)[C@H]2O)c(C)cc2c1C(=O)c1c(O)cccc1C2=O | 0.1 | 0.05 | 0.25
COc1cc2c(c(OC)c1OC)C(=O)c1c(cc(C)c(O[C@@H]3O[C@H](CO)[C@@H](O)[C@H](O)[C@H]3O)c1OC)C2=O | 0.05 | 0.025 | 0.025
COc1c(O[C@@H]2O[C@H](CO)[C@@H](O)[C@H](O)[C@H]2O)cc2c(c1O)C(=O)c1c(cc(C)c(O)c1OC)C2=O | 0.1 | 0.05 | 0.05
O=C1c2cccc(O)c2C(=O)c2c(O)cccc21 [DANTHRON] | >0.25 | >0.25 | >0.25
O=C1c2ccccc2C(=O)c2c(O)ccc(O)c21 [QUINIZARIN] | >0.25 | >0.25 | >0.25
O=C1c2ccccc2C(=O)c2c1ccc(O)c2O [ATHRAQUINONES A] | >0.25 | >0.25 | >0.25
Cc1cc(O)c2c(c1)Cc1cccc(O)c1C2=O | >0.25 | >0.25 | >0.25
COc1c(O)cc2c(c1O)C(=O)c1c(cc(C)c(O)c1OC)C2=O [AURANTIOOBTUSIN] | >0.25 | >0.25 | >0.25
COc1c(O)c(C)cc2c1C(=O)c1c(O)cccc1C2=O [OBTUSIFOLIN] | 0.25 | 0.25 | >0.25
O=C1c2ccc(O)cc2C(=O)c2ccc(O)cc21 [ANTHRAFLAVICACID] | >0.25 | >0.25 | >0.25
COc1cc(O)c2c(c1)C(=O)c1cc(C)cc(O)c1C2=O [PHYSCION] | >0.25 | 0.25 | 0.25
O=C(O)c1cc(O)c2c(c1)C(=O)c1cccc(O)c1C2=O [RHEIN] | 0.25 | 0.25 | 0.25
Cc1cc(O)c2c(c1)C(=O)c1cccc(O)c1C2=O [CHRYSOPHANOL] | >0.25 | >0.25 | >0.25
